The target of this test is DDE (fibrin-derived polypeptide) (Homo sapiens, UniProt P02671+P02675+P02679). The test is described as follows: Direct binding fluorescence polarization (FP) assay using 5-carboxyfluorescein labeled peptides. As to conditions: 20 nM CF5-labeled peptide, serial dilutions of DDE, anisotropy read at 485 nm; read-out: KD (μM) Direct Binding (n = 2). The protocol:
Assay of Fibrin Binding Peptides by Direct Binding Fluorescence Polarization (FP) Procedure using 5-Carboxyfluoresein Labeled Peptides
Protocol • 1. Prepare 1 mL of 40 nM solution of 5-carboxyfluorescein-labeled peptide in HEPES dilution buffer (HDB) with 0.01% Tween. • HDB (10 mM HEPES, 150 mM […], 2 mM CaCl2) • 2. Dilute the 40 nM solution to obtain 1 ml of a 20 nM solution of the test 5-carboxyfluorescein-labeled peptide. • 3. Prepare a solution of DDE at a concentration that will be approximately 5-10 fold greater than the expected KD. For the described assay an 8 μM concentration of DDE was prepared. • 4. Mix equal volumes of the DDE solution with the 40 nM peptide solution. • 5. Prepare serial dilutions of DDE in a solution consisting of the binding buffer with 0.01% Tween20 and 20 nM of the 5-carboxyfluorescein-labeled peptide. • 6. Make dilutions as shown in the following table in a Labsystems 384-well microplate and mix by repeated aspiration and dispensing of the solution into the wells. • 7. Centrifuge the plate at 2000 RPM for 5 minutes to remove air pockets in the wells. • 8. Read in Tecan Polarion Plate Reader at 485 nm to obtain the anisotropy value.
The anisotropy (in mP—millipolarization units) vs the logarithm of the concentration (micromoles/liter) of the receptor concentration is graphed. The dissociation constant is obtained at the midpoint of the curve whose extrema are Afree and Abound where Afree is the anisotropy of the free peptide and Abound is the anisotropy of the fully bound peptide. The theory, methods of operation and mathematical analysis is described in, for example, the following reference: Fluorescence Polarization Technical Resource Guide Technical Resource Guide 4th Edn. Invitrogen Corporation•501 Charmany Drive•Madison, Wis. 53719 USA. Particularly, the mathematical analysis of the data and obtaining binding constants is described in Chapter 8: Analysis of FP Binding Data pp 8-2-8-7.
(In general: Fluorescence polarisation rises when a labelled molecule tumbles more slowly, as on binding a larger partner.)

The structures appear in SMILES notation. Bridge positions count the residues as written; N and C are the ends. Square brackets hold non-standard residues; d marks the D form. Peptide text beside a SMILES is read from it. * marks the point of attachment. 5FAM = O=C1OC2(c3ccc(O)cc3Oc3cc(O)ccc32)c2ccc(C(=O)*)cc21; Cha = N[C@@H](CC1CCCCC1)C(=O)O; AEEA = NCCOCCOCC(=O)O

Sequence of DDE (fibrin-derived polypeptide) (P02671 124-216): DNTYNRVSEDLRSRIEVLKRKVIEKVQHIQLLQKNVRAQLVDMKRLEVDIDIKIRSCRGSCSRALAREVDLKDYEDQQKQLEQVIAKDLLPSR
Sequence of DDE (fibrin-derived polypeptide) (P02675 164-491): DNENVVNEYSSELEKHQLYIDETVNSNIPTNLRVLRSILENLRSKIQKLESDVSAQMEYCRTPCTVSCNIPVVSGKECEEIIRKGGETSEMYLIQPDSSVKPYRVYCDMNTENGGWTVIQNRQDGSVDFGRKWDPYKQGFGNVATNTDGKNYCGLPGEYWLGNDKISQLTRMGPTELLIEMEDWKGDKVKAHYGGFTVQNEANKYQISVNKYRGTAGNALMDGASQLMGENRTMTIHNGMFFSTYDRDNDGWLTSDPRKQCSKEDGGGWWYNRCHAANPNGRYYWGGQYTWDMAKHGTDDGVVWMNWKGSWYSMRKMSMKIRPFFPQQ
Sequence of DDE (fibrin-derived polypeptide) (P02679 114-432): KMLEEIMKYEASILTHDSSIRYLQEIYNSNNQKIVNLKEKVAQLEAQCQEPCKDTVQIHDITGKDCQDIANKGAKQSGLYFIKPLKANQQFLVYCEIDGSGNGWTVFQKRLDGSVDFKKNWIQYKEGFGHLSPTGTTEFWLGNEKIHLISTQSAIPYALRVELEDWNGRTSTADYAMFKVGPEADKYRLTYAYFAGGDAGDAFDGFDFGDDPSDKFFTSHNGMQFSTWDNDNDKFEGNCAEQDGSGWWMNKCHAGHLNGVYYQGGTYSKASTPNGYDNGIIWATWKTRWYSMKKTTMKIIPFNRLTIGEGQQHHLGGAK
Sequence of DDE (fibrin-derived polypeptide) (P02671 36-97): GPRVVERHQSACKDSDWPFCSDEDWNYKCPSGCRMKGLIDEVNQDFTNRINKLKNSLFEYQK
Sequence of DDE (fibrin-derived polypeptide) (P02675 45-152): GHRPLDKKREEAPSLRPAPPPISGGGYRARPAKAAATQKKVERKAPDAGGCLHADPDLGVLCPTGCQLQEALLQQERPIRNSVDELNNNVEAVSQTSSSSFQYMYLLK
Sequence of DDE (fibrin-derived polypeptide) (P02679 27-88): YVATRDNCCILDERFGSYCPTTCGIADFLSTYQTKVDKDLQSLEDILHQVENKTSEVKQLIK

As to `CC(=O)N[C@@H](Cc1c[nH]c2ccccc12)C(=O)N[C@@H](CCC(N)=O)C(=O)N1CCC[C@H]1C(=O)N[C@H]1CSSC[C@@H](C(=O)N[C@@H](Cc2c[nH]c3ccccc23)C(=O)N[C@@H](CC(=O)O)C(=O)N2CCC[C@H]2C(=O)NCC(=O)NCC(=O)NCC(=O)N[C@@H](CCCCNC(=O)c2ccc3c(c2)C(=O)OC32c3ccc(O)cc3Oc3cc(O)ccc32)C(N)=O)NC(=O)[C@H](CC2CCCCC2)NC(=O)[C@H]([C@@H](C)O)NC(=O)[C@H](Cc2c[nH]c3ccccc23)NC(=O)[C@H](CO)NC(=O)[C@H](CCC(=O)O)NC(=O)[C@H](C)NC(=O)[C@@H]2CCCN2C1=O` [Seq042-CF5, Ac-WQPC*PAESWT-Cha-C*WDPGGGK(CF5)-NH2] (Ac-WQPCPAESWT[Cha]CWDPGGGK(5FAM)-NH2; disulfide 4-12), the dissociation constant (Kd) (usually the constant that tells how readily two partners part at equilibrium) was 0.17 µM. With `CC(=O)N[C@@H](CO)C(=O)NCC(=O)N[C@@H](CO)C(=O)NCC(=O)NCCOCCOCC(=O)N[C@@H](Cc1c[nH]c2ccccc12)C(=O)N[C@@H](CCC(N)=O)C(=O)N1CCC[C@H]1C(=O)N[C@H]1CSSC[C@@H](C(=O)N[C@@H](Cc2c[nH]c3ccccc23)C(=O)N[C@@H](CC(=O)O)C(=O)N2CCC[C@H]2C(=O)NCC(=O)NCC(=O)NCC(=O)N[C@@H](CCCCNC(=O)c2ccc3c(c2)C(=O)OC32c3ccc(O)cc3Oc3cc(O)ccc32)C(N)=O)NC(=O)[C@H](Cc2ccccc2)NC(=O)[C@H]([C@@H](C)O)NC(=O)[C@H](Cc2c[nH]c3ccccc23)NC(=O)[C@H](CO)NC(=O)[C@H](CCC(=O)O)NC(=O)[C@H](C)NC(=O)[C@@H]2CCCN2C1=O` [Seq045-CF5] (Ac-SGSG[AEEA]WQPCPAESWTFCWDPGGGK(5FAM)-NH2; disulfide 9-17), the equilibrium dissociation constant (Kd) came to 0.57 µM. Consider `CC(=O)N[C@@H](CCCNC(=N)N)C(=O)N[C@@H](CCCNC(=N)N)C(=O)NCC(=O)NCC(=O)N[C@@H](Cc1c[nH]c2ccccc12)C(=O)N[C@@H](CCC(N)=O)C(=O)N1CCC[C@H]1C(=O)N[C@H]1CSSC[C@@H](C(=O)N[C@@H](Cc2c[nH]c3ccccc23)C(=O)N[C@@H](CC(=O)O)C(=O)N2CCC[C@H]2C(=O)NCC(=O)NCC(=O)NCC(=O)N[C@@H](CCCCNC(=O)c2ccc3c(c2)C(=O)OC32c3ccc(O)cc3Oc3cc(O)ccc32)C(N)=O)NC(=O)[C@H](Cc2ccccc2)NC(=O)[C@H]([C@@H](C)O)NC(=O)[C@H](Cc2c[nH]c3ccccc23)NC(=O)[C@H](CO)NC(=O)[C@H](CCC(=O)O)NC(=O)[C@H](C)NC(=O)[C@@H]2CCCN2C1=O` [Seq046-CF5] (Ac-RRGGWQPCPAESWTFCWDPGGGK(5FAM)-NH2; disulfide 8-16), for which the Kd amounted to 0.22 µM.

In the case of `CC(=O)N[C@@H](CCCNC(=N)N)C(=O)N[C@@H](Cc1c[nH]c2ccccc12)C(=O)N[C@@H](CCC(N)=O)C(=O)N1CCC[C@H]1C(=O)N[C@H]1CSSC[C@@H](C(=O)N[C@@H](Cc2c[nH]c3ccccc23)C(=O)N[C@@H](CC(=O)O)C(=O)N2CCC[C@H]2C(=O)NCC(=O)NCC(=O)NCC(=O)N[C@@H](CCCCNC(=O)c2ccc3c(c2)C(=O)OC32c3ccc(O)cc3Oc3cc(O)ccc32)C(N)=O)NC(=O)[C@H](Cc2ccccc2)NC(=O)[C@H]([C@@H](C)O)NC(=O)[C@H](Cc2c[nH]c3ccccc23)NC(=O)[C@H](CO)NC(=O)[C@H](CCC(=O)O)NC(=O)[C@H](Cc2c[nH]c3ccccc23)NC(=O)[C@@H]2CCCN2C1=O` [Seq048-CF5] (Ac-RWQPCPWESWTFCWDPGGGK(5FAM)-NH2; disulfide 5-13), the dissociation constant Kd was found to be 0.11 µM. Consider `CC(=O)N[C@@H](CCCNC(=N)N)C(=O)N[C@@H](Cc1c[nH]c2ccccc12)C(=O)N[C@@H](CCC(N)=O)C(=O)N1CCC[C@H]1C(=O)N[C@H]1CSSC[C@@H](C(=O)N[C@@H](Cc2c[nH]c3ccccc23)C(=O)N[C@@H](CC(=O)O)C(=O)N2CCC[C@H]2C(=O)NCC(=O)NCC(=O)NCC(=O)N[C@@H](CCCCNC(=O)c2ccc3c(c2)C(=O)OC32c3ccc(O)cc3Oc3cc(O)ccc32)C(N)=O)NC(=O)[C@H](Cc2ccccc2)NC(=O)[C@H]([C@@H](C)O)NC(=O)[C@H](Cc2c[nH]c3ccccc23)NC(=O)[C@H](CO)NC(=O)[C@H](CCC(=O)O)NC(=O)[C@H](C)NC(=O)[C@@H]2CCCN2C1=O` [Seq049-CF5] (Ac-RWQPCPAESWTFCWDPGGGK(5FAM)-NH2; disulfide 5-13), for which the Kd was determined as 0.21 µM.

Regarding `CC(=O)N[C@@H](CCCNC(=N)N)C(=O)N[C@@H](Cc1c[nH]c2ccccc12)C(=O)N[C@@H](CCC(N)=O)C(=O)N1CCC[C@H]1C(=O)N[C@H]1CSSC[C@@H](C(=O)N[C@@H](Cc2c[nH]c3ccccc23)C(=O)N[C@@H](CC(=O)O)C(=O)N2CCC[C@H]2C(=O)NCC(=O)NCC(=O)NCC(=O)N[C@@H](CCCCNC(=O)c2ccc3c(c2)C(=O)OC32c3ccc(O)cc3Oc3cc(O)ccc32)C(N)=O)NC(=O)[C@H](CC2CCCCC2)NC(=O)[C@H]([C@@H](C)O)NC(=O)[C@H](Cc2c[nH]c3ccccc23)NC(=O)[C@H](CO)NC(=O)[C@H](CCC(=O)O)NC(=O)[C@H](C)NC(=O)[C@@H]2CCCN2C1=O` [Seq050-CF5, Ac-RWQPC*PAESWT-Cha-C*WDPGGGK(CF5)-NH2] (Ac-RWQPCPAESWT[Cha]CWDPGGGK(5FAM)-NH2; disulfide 5-13), the Kd is 0.08 µM. On to `C[C@@H]1NC(=O)[C@@H]2CCCN2C(=O)[C@@H](NC(=O)[C@@H]2CCCN2C(=O)[C@H](CCC(N)=O)NC(=O)[C@H](Cc2c[nH]c3ccccc23)NC(=O)CN)CSSC[C@@H](C(=O)N[C@@H](Cc2c[nH]c3ccccc23)C(=O)N[C@@H](CC(=O)O)C(=O)N2CCC[C@H]2C(=O)NCC(=O)NCC(=O)NCC(=O)N[C@@H](CCCCNC(=O)c2ccc3c(c2)C(=O)OC32c3ccc(O)cc3Oc3cc(O)ccc32)C(N)=O)NC(=O)[C@H](CC2CCCCC2)NC(=O)[C@H]([C@@H](C)O)NC(=O)[C@H](Cc2c[nH]c3ccccc23)NC(=O)[C@H](CO)NC(=O)[C@H](CCC(=O)O)NC1=O` [Seq051-CF5, GWQPC*PAESWT-Cha-C*WDPGGGK(CF5)-NH2] (H-GWQPCPAESWT[Cha]CWDPGGGK(5FAM)-NH2; disulfide 5-13; N-terminus assumed), for which the Kd is 0.06 µM.

Turning to `CC(=O)N[C@@H](CCCNC(=N)N)C(=O)NCC(=O)N[C@@H](Cc1c[nH]c2ccccc12)C(=O)N[C@@H](CCC(N)=O)C(=O)N1CCC[C@H]1C(=O)N[C@H]1CSSC[C@@H](C(=O)N[C@@H](Cc2c[nH]c3ccccc23)C(=O)N[C@@H](CC(=O)O)C(=O)N2CCC[C@H]2C(=O)NCC(=O)NCC(=O)NCC(=O)N[C@@H](CCCCNC(=O)c2ccc3c(c2)C(=O)OC32c3ccc(O)cc3Oc3cc(O)ccc32)C(N)=O)NC(=O)[C@H](Cc2ccccc2)NC(=O)[C@H]([C@@H](C)O)NC(=O)[C@H](Cc2c[nH]c3ccccc23)NC(=O)[C@H](CO)NC(=O)[C@H](CCC(=O)O)NC(=O)[C@H](Cc2c[nH]c3ccccc23)NC(=O)[C@@H]2CCCN2C1=O` [Seq052-CF5] (Ac-RGWQPCPWESWTFCWDPGGGK(5FAM)-NH2; disulfide 6-14), the dissociation constant Kd is 0.53 µM. For the compound `CC(=O)N[C@@H](CCCNC(=N)N)C(=O)NCC(=O)N[C@@H](Cc1c[nH]c2ccccc12)C(=O)N[C@@H](CCC(N)=O)C(=O)N1CCC[C@H]1C(=O)N[C@H]1CSSC[C@@H](C(=O)N[C@@H](Cc2c[nH]c3ccccc23)C(=O)N[C@@H](CC(=O)O)C(=O)N2CCC[C@H]2C(=O)NCC(=O)NCC(=O)NCC(=O)N[C@@H](CCCCNC(=O)c2ccc3c(c2)C(=O)OC32c3ccc(O)cc3Oc3cc(O)ccc32)C(N)=O)NC(=O)[C@H](CC2CCCCC2)NC(=O)[C@H]([C@@H](C)O)NC(=O)[C@H](Cc2c[nH]c3ccccc23)NC(=O)[C@H](CO)NC(=O)[C@H](CCC(=O)O)NC(=O)[C@H](C)NC(=O)[C@@H]2CCCN2C1=O` [Seq053-CF5, Ac-RGWQPC*PAESWT-Cha-C*WDPGGGK(CF5)-NH2] (Ac-RGWQPCPAESWT[Cha]CWDPGGGK(5FAM)-NH2; disulfide 6-14), the Kd was found to be 0.1 µM. The result for `C[C@@H]1NC(=O)[C@@H]2CCCN2C(=O)[C@@H](NC(=O)[C@@H]2CCCN2C(=O)[C@H](CCC(N)=O)NC(=O)[C@H](Cc2c[nH]c3ccccc23)NC(=O)CNC(=O)[C@@H](N)CCCNC(=N)N)CSSC[C@@H](C(=O)N[C@@H](Cc2c[nH]c3ccccc23)C(=O)N[C@@H](CC(=O)O)C(=O)N2CCC[C@H]2C(=O)NCC(=O)NCC(=O)NCC(=O)N[C@@H](CCCCNC(=O)c2ccc3c(c2)C(=O)OC32c3ccc(O)cc3Oc3cc(O)ccc32)C(N)=O)NC(=O)[C@H](CC2CCCCC2)NC(=O)[C@H]([C@@H](C)O)NC(=O)[C@H](Cc2c[nH]c3ccccc23)NC(=O)[C@H](CO)NC(=O)[C@H](CCC(=O)O)NC1=O` [Seq054-CF5, RGWQPC*PAESWT-Cha-C*WDPGGGK(CF5)-NH2] (H-RGWQPCPAESWT[Cha]CWDPGGGK(5FAM)-NH2; disulfide 6-14) reads 0.05 µM.
